pIC50: −log10 of the molar value.
How the values were obtained:
BACE1 [1] = molecular target: T1, BACE1 (Homo sapiens (Human), UniProt P56817); assay: In vitro enzymatic BACE1 FRET assay; type: biochemical; conditions: read-out: BACE1 Enzyme IC50
Target sequence in this assay (P56817 46-501): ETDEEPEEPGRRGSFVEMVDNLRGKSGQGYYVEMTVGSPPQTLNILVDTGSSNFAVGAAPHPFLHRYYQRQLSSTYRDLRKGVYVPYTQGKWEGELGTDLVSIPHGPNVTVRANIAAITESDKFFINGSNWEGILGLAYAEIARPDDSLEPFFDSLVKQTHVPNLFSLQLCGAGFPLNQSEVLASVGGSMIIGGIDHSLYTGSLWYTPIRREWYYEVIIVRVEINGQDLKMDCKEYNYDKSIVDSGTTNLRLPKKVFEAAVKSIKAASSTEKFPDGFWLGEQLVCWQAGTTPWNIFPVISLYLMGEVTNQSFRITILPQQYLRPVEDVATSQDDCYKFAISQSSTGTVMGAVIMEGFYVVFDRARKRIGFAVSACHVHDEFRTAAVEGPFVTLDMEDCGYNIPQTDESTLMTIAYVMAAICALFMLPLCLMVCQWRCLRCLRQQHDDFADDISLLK

BACE1 [2] = molecular target: T1, BACE1; assay: In vitro BACE1 cell-based assay (Aβ40 in conditioned medium of cells stably expressing APP, HTRF); conditions: Aβ40 in conditioned media after 24 h incubation
Target sequence in this assay (P56817 46-501, species assumed): as the sequence (P56817 46-501) above

human recombinant BACE2 = human recombinant BACE2 (Homo sapiens (Human), UniProt Q9Y5Z0); assay: In vitro enzymatic BACE2 FRET assay; type: biochemical; conditions: read-out: BACE2 Enzyme IC50
human recombinant BACE2, sequence (Q9Y5Z0 63-518): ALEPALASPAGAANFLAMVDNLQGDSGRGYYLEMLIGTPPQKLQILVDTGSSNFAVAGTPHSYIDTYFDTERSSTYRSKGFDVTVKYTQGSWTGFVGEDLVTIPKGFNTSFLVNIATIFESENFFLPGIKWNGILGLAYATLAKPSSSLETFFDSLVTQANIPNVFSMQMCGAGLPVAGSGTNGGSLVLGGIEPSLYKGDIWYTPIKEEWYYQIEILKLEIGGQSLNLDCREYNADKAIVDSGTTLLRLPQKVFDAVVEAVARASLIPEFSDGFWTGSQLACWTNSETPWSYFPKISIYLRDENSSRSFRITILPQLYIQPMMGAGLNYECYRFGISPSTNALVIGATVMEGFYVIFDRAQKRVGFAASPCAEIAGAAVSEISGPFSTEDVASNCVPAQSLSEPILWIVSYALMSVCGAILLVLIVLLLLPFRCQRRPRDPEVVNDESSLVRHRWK

Cathepsin D (CatD) = Cathepsin D (CatD) (Homo sapiens (Human), UniProt P07339); assay: In vitro enzymatic Cathepsin D (CatD) FRET assay; type: biochemical; conditions: read-out: Cat D Enzyme IC50
Cathepsin D (CatD), sequence (P07339 65-412, species assumed): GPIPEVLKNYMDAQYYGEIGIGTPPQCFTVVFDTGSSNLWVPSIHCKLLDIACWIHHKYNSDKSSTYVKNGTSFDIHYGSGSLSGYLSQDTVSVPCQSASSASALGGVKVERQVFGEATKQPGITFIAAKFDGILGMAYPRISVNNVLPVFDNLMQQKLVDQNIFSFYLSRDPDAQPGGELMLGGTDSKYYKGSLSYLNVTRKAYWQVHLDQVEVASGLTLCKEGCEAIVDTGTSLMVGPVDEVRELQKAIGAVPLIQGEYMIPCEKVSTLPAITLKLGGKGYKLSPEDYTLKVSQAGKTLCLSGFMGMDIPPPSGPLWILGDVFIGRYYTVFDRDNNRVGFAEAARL

| Structure (SMILES) | pIC50 (BACE1 [1]) | pIC50 (BACE1 [2]) | pIC50 (human recombinant BACE2) | pIC50 (Cathepsin D (CatD)) |
| --- | --- | --- | --- | --- |
| COC(C)COc1cnc(/C(F)=C/c2ccc(F)c([C@@]3(C)N=C(N)[C@@]4(CF)CC[C@@H]3S4(=O)=O)c2)cn1 (stereo partly drawn) [Example 136, (1R,4R,5S)-2-amino-4-(2-fluoro-5-((Z)-2-fluoro-2-(5-(2-methoxypropoxy)pyrazin-2-yl)vinyl)phenyl)-1-(fluoromethyl)-4-methyl-8-thia-3-azabicyclo[3.2.1]oct-2-ene 8,8-dioxide] | 7.29 | 6.66 | 6.50 | 4.11 |
| CCOc1cnc(/C(F)=C/c2ccc(F)c([C@@]3(C)N=C(N)[C@@]4(CF)CC[C@@H]3S4(=O)=O)c2)cn1 [Example 122, (1R,4R,5S)-2-amino-4-(5-((Z)-2-(5-ethoxypyrazin-2-yl)-2-fluorovinyl)-2-fluorophenyl)-1-(fluoromethyl)-4-methyl-8-thia-3-azabicyclo[3.2.1]oct-2-ene 8,8-dioxide] | 7.27 | 6.28 | 6.71 | < 3.40 |
| CN1C(N)=N[C@](C)(c2cc(/C=C(\F)c3cc4c(cn3)OCCC4)ccc2F)CS1(=O)=O [Example 239, (5R)-5-(5-((Z)-2-(3,4-dihydro-2H-pyrano[2,3-c]pyridin-6-yl)-2-fluoroethenyl)-2-fluorophenyl)-2,5-dimethyl-5,6-dihydro-2H-1,2,4-thiadiazin-3-amine 1,1-dioxide] | 6.28 | 5.99 | 6.84 | 3.48 |
| CN1C(N)=N[C@](C)(c2cc(/C=C(\F)c3cc4c(cn3)OCCO4)ccc2F)CS1(=O)=O [Example 187, (R,Z)-3-amino-5-(5-(2-(2,3-dihydro-[1,4]dioxino[2,3-c]pyridin-7-yl)-2-fluorovinyl)-2-fluorophenyl)-2,5-dimethyl-5,6-dihydro-2H-1,2,4-thiadiazine 1,1-dioxide] | 6.76 | 6.97 | 7.11 | 3.78 |
| CN1C(N)=N[C@](C)(c2cc(/C=C(\F)c3ccc(C(F)(F)F)cn3)ccc2F)CS1(=O)=O [Example 244, (5R)-5-(2-fluoro-5-((Z)-2-fluoro-2-(5-(trifluoromethyl)-2-pyridinyl)ethenyl)phenyl)-2,5-dimethyl-5,6-dihydro-2H-1,2,4-thiadiazin-3-amine 1,1-dioxide] | 8.22 | 8.10 | 7.51 | 3.69 |
| C[C@]1(c2cc(/C=C(\F)c3cnc(OCC(F)(F)F)cn3)ccc2F)N=C(N)[C@@]2(CF)CC[C@@H]1S2(=O)=O [Example 109, (1R,4R,5S)-2-amino-4-(2-fluoro-5-((Z)-2-fluoro-2-(5-(2,2,2-trifluoroethoxy)pyrazin-2-yl)vinyl)phenyl)-1-(fluoromethyl)-4-methyl-8-thia-3-azabicyclo[3.2.1]oct-2-ene 8,8-dioxide] | 7.55 | 6.64 | 6.78 | 3.87 |
| CN1C(N)=N[C@](C)(c2cc(/C=C(\F)C3CCOCC3)cc(F)c2F)CS1(=O)=O [Example 110, (R,Z)-3-amino-5-(2,3-difluoro-5-(2-fluoro-2-(tetrahydro-2H-pyran-4-yl)vinyl)phenyl)-2,5-dimethyl-5,6-dihydro-2H-1,2,4-thiadiazine 1,1-dioxide] | 6.15 | 6.20 | 6.02 | 3.71 |
| CC#CCOc1cnc(/C(F)=C/c2ccc(F)c([C@@]3(C)N=C(N)N(C)S(=O)(=O)C3(C)C)c2)cn1 [Example 185, (R,Z)-3-amino-5-(5-(2-(5-(but-2-yn-1-yloxy)pyrazin-2-yl)-2-fluorovinyl)-2-fluorophenyl)-2,5,6,6-tetramethyl-5,6-dihydro-2H-1,2,4-thiadiazine 1,1-dioxide] | 8.70 | 8.30 | 6.80 | 3.59 |
| C#CCOc1cnc(/C(F)=C/c2ccc(F)c([C@@]3(C)N=C(N)[C@@]4(CF)CC[C@@H]3S4(=O)=O)c2)cn1 [Example 108, (1R,4R,5S)-2-amino-4-(2-fluoro-5-((Z)-2-fluoro-2-(5-(prop-2-yn-1-yloxy)pyrazin-2-yl)vinyl)phenyl)-1-(fluoromethyl)-4-methyl-8-thia-3-azabicyclo[3.2.1]oct-2-ene 8,8-dioxide] | 8.52 | 8.22 | 7.24 | 3.84 |
| Cc1noc(COc2cnc(/C(F)=C/c3ccc(F)c([C@@]4(C)N=C(N)N(C)S(=O)(=O)C45CC5)c3)cn2)n1 [Example 161, (8R)-8-(2-fluoro-5-((Z)-2-fluoro-2-(5-((3-methyl-1,2,4-oxadiazol-5-yl)methoxy)-2-pyrazinyl)ethenyl)phenyl)-5,8-dimethyl-4-thia-5,7-diazaspiro[2.5]oct-6-en-6-amine 4,4-dioxide] | 7.10 | 7.32 | 5.58 | 4.22 |

Continued, values first:

| pIC50 (BACE1 [1]) | pIC50 (BACE1 [2]) | pIC50 (human recombinant BACE2) | pIC50 (Cathepsin D (CatD)) | Structure (SMILES) |
| --- | --- | --- | --- | --- |
| 8.00 | 6.33 | 8.15 | 4.04 | C[C@@]1(c2cc(/C=C(\F)c3ccc(Cl)cn3)ccc2F)CS(=O)(=O)C2(CCC2)C(N)=N1 [Example 100, (R,Z)-9-amino-7-(5-(2-(5-chloropyridin-2-yl)-2-fluorovinyl)-2-fluorophenyl)-7-methyl-5-thia-8-azaspiro[3.5]non-8-ene 5,5-dioxide] |
| 8.10 | 8.00 | 7.37 | 4.05 | CC1(C)C(N)=N[C@](C)(c2cc(/C=C(\F)c3ccc(C(F)(F)F)cn3)ccc2F)CS1(=O)=O [Example 265, (R,Z)-5-amino-3-(2-fluoro-5-(2-fluoro-2-(5-(trifluoromethyl)pyridin-2-yl)vinyl)phenyl)-3,6,6-trimethyl-3,6-dihydro-2H-1,4-thiazine 1,1-dioxide] |
| 7.92 | 7.64 | 8.05 | 4.45 | CN1C(N)=N[C@](C)(c2cc(/C=C(\F)c3ccc(Br)cn3)cc(F)c2F)CS1(=O)=O [Example 105, (R,Z)-3-amino-5-(5-(2-(5-bromopyridin-2-yl)-2-fluorovinyl)-2,3-difluorophenyl)-2,5-dimethyl-5,6-dihydro-2H-1,2,4-thiadiazine 1,1-dioxide] |
| 5.76 | 5.65 | 6.32 | 3.33 | CC1(C)C(N)=N[C@](C)(c2cc(/C=C(\F)c3cnc(OCc4ccncc4)cn3)ccc2F)CS1(=O)=O [Example 210, (R,Z)-5-amino-3-(2-fluoro-5-(2-fluoro-2-(5-(pyridin-4-ylmethoxy)pyrazin-2-yl)vinyl)phenyl)-3,6,6-trimethyl-3,6-dihydro-2H-1,4-thiazine 1,1-dioxide] |
| 7.06 | 7.28 | 6.65 | 3.91 | Cc1noc(COc2cnc(/C(F)=C/c3ccc(F)c([C@]4(C)CS(=O)(=O)C(C)(C)C(N)=N4)c3)cn2)n1 [Example 175, (R,Z)-5-amino-3-(2-fluoro-5-(2-fluoro-2-(5-((3-methyl-1,2,4-oxadiazol-5-yl)methoxy)pyrazin-2-yl)vinyl)phenyl)-3,6,6-trimethyl-3,6-dihydro-2H-1,4-thiazine 1,1-dioxide] |
| 6.91 | 5.60 | 6.51 | 4.33 | CC1(C)C(N)=N[C@](C)(c2cc(/C=C(\F)c3cnc(OCc4ccccc4)cn3)cnc2F)CS1(=O)=O [Example 209, (R,Z)-5-amino-3-(5-(2-(5-(benzyloxy)pyrazin-2-yl)-2-fluorovinyl)-2-fluoropyridin-3-yl)-3,6,6-trimethyl-3,6-dihydro-2H-1,4-thiazine 1,1-dioxide] |
| 7.92 | 7.46 | 7.34 | 4.12 | CC1(C)C(N)=N[C@](C)(c2cc(/C=C(\F)c3ccc(C#N)cn3)cc(F)c2F)CS1(=O)=O [Example 192, (R,Z)-6-(2-(3-(5-amino-3,6,6-trimethyl-1,1-dioxido-3,6-dihydro-2H-1,4-thiazin-3-yl)-4,5-difluorophenyl)-1-fluorovinyl)nicotinonitrile] |
| 6.95 | 6.76 | 6.43 | 4.42 | CC#C[C@@H](CC)Oc1cnc(/C(F)=C/c2ccc(F)c([C@]3(C)CS(=O)(=O)C(C)(C)C(N)=N3)c2)cn1 (single isomer, unassigned) [Example 198] |
| 7.26 | 6.64 | 6.48 | 4.02 | CC1(C)C(N)=N[C@](C)(c2cc(/C=C(\F)c3cnc(OCC(F)(F)C(F)F)cn3)ccc2F)CS1(=O)=O [Example 141, (R,Z)-5-amino-3-(2-fluoro-5-(2-fluoro-2-(5-(2,2,3,3-tetrafluoropropoxy)pyrazin-2-yl)vinyl)phenyl)-3,6,6-trimethyl-3,6-dihydro-2H-1,4-thiazine 1,1-dioxide] |
| 8.22 | 7.13 | 6.56 | 3.98 | C#CCOc1cnc(/C(F)=C/c2ccc(F)c([C@]3(CF)CS(=O)(=O)C(C)(C)C(N)=N3)c2)cn1 [Example 190, (S,Z)-5-amino-3-(2-fluoro-5-(2-fluoro-2-(5-(prop-2-yn-1-yloxy)pyrazin-2-yl)vinyl)phenyl)-3-(fluoromethyl)-6,6-dimethyl-3,6-dihydro-2H-1,4-thiazine 1,1-dioxide] |
| 6.97 | 6.77 | 7.12 | 4.04 | COc1cnc(/C(F)=C/c2ccc(F)c([C@]3(C)CS(=O)(=O)N(C)C(N)=N3)c2)cn1 [Example 241, (5R)-5-(2-fluoro-5-((Z)-2-fluoro-2-(5-methoxy-2-pyrazinyl)ethenyl)phenyl)-2,5-dimethyl-5,6-dihydro-2H-1,2,4-thiadiazin-3-amine 1,1-dioxide] |
| 7.47 | 7.17 | 8.10 | 3.43 | CN1C(N)=N[C@](C)(c2cc(/C=C(\F)c3ccc(F)cn3)ccc2F)CS1(=O)=O [Example 240, (5R)-5-(2-fluoro-5-((Z)-2-fluoro-2-(5-fluoro-2-pyridinyl)ethenyl)phenyl)-2,5-dimethyl-5,6-dihydro-2H-1,2,4-thiadiazin-3-amine 1,1-dioxide] |

— patent US11021493B2, “1,4-thiazine dioxide and 1,2,4-thiadiazine dioxide derivatives as beta-secretase inhibitors and methods of use” (AMGEN INC., priority 2016, dated 2021)
